Laboratory results: PubChem BioAssay (NCI)
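Exposure lasted 48 hours, with cells grown in 96-well plates and compounds tested at five concentrations. GI50 marks 50% less growth. TGI denotes the concentration required for complete inhibition of growth.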

Legend:
Assay in all cases: NCI anticancer screen, dose series, 48 h
786-0 renal = test system: 786-0 renal
A498 renal = test system: A498 renal
A549 NSCLC = test system: A549 NSCLC
ACHN renal = test system: ACHN renal
BT-549 breast = test system: BT-549 breast
CAKI-1 renal = test system: CAKI-1 renal
CCRF-CEM leukemia = test system: CCRF-CEM leukemia
COLO 205 colon = test system: COLO 205 colon
DU-145 prostate = test system: DU-145 prostate
EKVX NSCLC = test system: EKVX NSCLC
HCC-2998 colon = test system: HCC-2998 colon
HCT-116 colon = test system: HCT-116 colon
HCT-15 colon = test system: HCT-15 colon
HL-60(TB) leukemia = test system: HL-60(TB) leukemia
HOP-62 NSCLC = test system: HOP-62 NSCLC
HOP-92 NSCLC = test system: HOP-92 NSCLC
HS 578T breast = test system: HS 578T breast
HT29 colon = test system: HT29 colon
IGROV1 ovarian = test system: IGROV1 ovarian
K-562 leukemia = test system: K-562 leukemia
KM12 colon = test system: KM12 colon
LOX IMVI melanoma = test system: LOX IMVI melanoma
M14 melanoma = test system: M14 melanoma
MALME-3M melanoma = test system: MALME-3M melanoma
MCF7 breast = test system: MCF7 breast
MDA-MB-231 breast = test system: MDA-MB-231 breast
MDA-MB-435 = test system: MDA-MB-435
NCI-H226 lung = test system: NCI-H226 lung
NCI-H23 lung = test system: NCI-H23 lung
NCI-H460 lung = test system: NCI-H460 lung
NCI-H522 lung = test system: NCI-H522 lung
OVCAR-3 ovarian = test system: OVCAR-3 ovarian
OVCAR-4 ovarian = test system: OVCAR-4 ovarian
OVCAR-5 ovarian = test system: OVCAR-5 ovarian
PC-3 prostate = test system: PC-3 prostate
RXF 393 renal = test system: RXF 393 renal
SF-268 CNS = test system: SF-268 CNS
SF-295 CNS = test system: SF-295 CNS
SF-539 CNS = test system: SF-539 CNS
SK-MEL-2 melanoma = test system: SK-MEL-2 melanoma
SK-MEL-28 melanoma = test system: SK-MEL-28 melanoma
SK-MEL-5 melanoma = test system: SK-MEL-5 melanoma
SN12C renal = test system: SN12C renal
SNB-19 CNS = test system: SNB-19 CNS
SNB-75 CNS = test system: SNB-75 CNS
SW-620 colon = test system: SW-620 colon
TK-10 renal = test system: TK-10 renal
UACC-257 melanoma = test system: UACC-257 melanoma
UACC-62 melanoma = test system: UACC-62 melanoma
UO-31 renal = test system: UO-31 renal

CNCCCNc1nc2ccccc2c2c(=O)c3cc(F)ccc3sc12 was tested. Which GI50 (786-0 renal) did it give?
Its GI50 is 1440 nM.

And the TGI (786-0 renal)?
The TGI was 2870 nM.

What about the GI50 (A498 renal) of the same compound?
The GI50 was 1350 nM.

And the TGI (A498 renal)?
The TGI was 2700 nM.

What about the GI50 (A549 NSCLC) of the same compound?
The GI50 was 1660 nM.

What about the TGI (A549 NSCLC) of the same compound?
Its TGI is 3610 nM.

And the GI50 (ACHN renal)?
The GI50 was 1490 nM.

And the TGI (ACHN renal)?
The TGI was 2810 nM.

And the GI50 (BT-549 breast)?
The GI50 was 1790 nM.

And the TGI (BT-549 breast)?
The TGI was 3320 nM.

What about the GI50 (CAKI-1 renal) of the same compound?
Its GI50 is 1480 nM.

What about the TGI (CAKI-1 renal) of the same compound?
The TGI was 2800 nM.

And the GI50 (CCRF-CEM leukemia)?
The GI50 was 1800 nM.

And the TGI (CCRF-CEM leukemia)?
Its TGI is 4340 nM.

And the GI50 (COLO 205 colon)?
The GI50 was 1770 nM.

And the TGI (COLO 205 colon)?
The TGI was 3780 nM.

And the GI50 (DU-145 prostate)?
Its GI50 is 1660 nM.

And the TGI (DU-145 prostate)?
The TGI was 3030 nM.

And the GI50 (EKVX NSCLC)?
The GI50 was 1550 nM.

And the TGI (EKVX NSCLC)?
Its TGI is 2940 nM.

What about the GI50 (HCC-2998 colon) of the same compound?
Its GI50 is 1680 nM.

And the TGI (HCC-2998 colon)?
The TGI was 3290 nM.

And the GI50 (HCT-116 colon)?
Its GI50 is 1500 nM.

What about the TGI (HCT-116 colon) of the same compound?
The TGI was 2920 nM.

What about the GI50 (HCT-15 colon) of the same compound?
Its GI50 is 1420 nM.

And the TGI (HCT-15 colon)?
The TGI was 2760 nM.

What about the GI50 (HL-60(TB) leukemia) of the same compound?
The GI50 was 1810 nM.

What about the TGI (HL-60(TB) leukemia) of the same compound?
Its TGI is 3690 nM.

What about the GI50 (HOP-62 NSCLC) of the same compound?
Its GI50 is 1500 nM.

What about the TGI (HOP-62 NSCLC) of the same compound?
Its TGI is 3230 nM.

What about the GI50 (HOP-92 NSCLC) of the same compound?
Its GI50 is 1020 nM.

And the TGI (HOP-92 NSCLC)?
The TGI was 2420 nM.

And the GI50 (HS 578T breast)?
Its GI50 is 1450 nM.

What about the TGI (HS 578T breast) of the same compound?
Its TGI is 3110 nM.

What about the GI50 (HT29 colon) of the same compound?
The GI50 was 1650 nM.

What about the TGI (HT29 colon) of the same compound?
Its TGI is 3450 nM.

What about the GI50 (IGROV1 ovarian) of the same compound?
The GI50 was 1370 nM.

And the TGI (IGROV1 ovarian)?
The TGI was 2760 nM.

And the GI50 (K-562 leukemia)?
Its GI50 is 1900 nM.

And the TGI (K-562 leukemia)?
The TGI was 5080 nM.

What about the GI50 (KM12 colon) of the same compound?
Its GI50 is 1630 nM.

What about the TGI (KM12 colon) of the same compound?
Its TGI is 3100 nM.

What about the GI50 (LOX IMVI melanoma) of the same compound?
Its GI50 is 1470 nM.

What about the TGI (LOX IMVI melanoma) of the same compound?
Its TGI is 2800 nM.

What about the GI50 (M14 melanoma) of the same compound?
The GI50 was 1720 nM.

What about the TGI (M14 melanoma) of the same compound?
Its TGI is 3220 nM.

What about the GI50 (MALME-3M melanoma) of the same compound?
The GI50 was 1550 nM.

What about the TGI (MALME-3M melanoma) of the same compound?
Its TGI is 3010 nM.

What about the GI50 (MCF7 breast) of the same compound?
Its GI50 is 1410 nM.

What about the TGI (MCF7 breast) of the same compound?
Its TGI is 2950 nM.

And the GI50 (MDA-MB-231 breast)?
The GI50 was 1330 nM.

And the TGI (MDA-MB-231 breast)?
The TGI was 2700 nM.

What about the GI50 (MDA-MB-435) of the same compound?
The GI50 was 1590 nM.

And the TGI (MDA-MB-435)?
Its TGI is 2940 nM.

And the GI50 (NCI-H226 lung)?
The GI50 was 1720 nM.

What about the TGI (NCI-H226 lung) of the same compound?
The TGI was 3280 nM.

And the GI50 (NCI-H23 lung)?
Its GI50 is 1690 nM.

And the TGI (NCI-H23 lung)?
The TGI was 3150 nM.

And the GI50 (NCI-H460 lung)?
The GI50 was 1380 nM.

What about the TGI (NCI-H460 lung) of the same compound?
Its TGI is 2670 nM.

What about the GI50 (NCI-H522 lung) of the same compound?
Its GI50 is 1860 nM.

And the TGI (NCI-H522 lung)?
Its TGI is 3730 nM.

What about the GI50 (OVCAR-3 ovarian) of the same compound?
Its GI50 is 1560 nM.

And the TGI (OVCAR-3 ovarian)?
Its TGI is 2950 nM.

And the GI50 (OVCAR-4 ovarian)?
Its GI50 is 1690 nM.

And the TGI (OVCAR-4 ovarian)?
The TGI was 3250 nM.

What about the GI50 (OVCAR-5 ovarian) of the same compound?
Its GI50 is 1620 nM.

What about the TGI (OVCAR-5 ovarian) of the same compound?
Its TGI is 3030 nM.

What about the GI50 (PC-3 prostate) of the same compound?
The GI50 was 1640 nM.

And the TGI (PC-3 prostate)?
The TGI was 3250 nM.

What about the GI50 (RXF 393 renal) of the same compound?
The GI50 was 1340 nM.

And the TGI (RXF 393 renal)?
The TGI was 2750 nM.

What about the GI50 (SF-268 CNS) of the same compound?
Its GI50 is 1470 nM.

And the TGI (SF-268 CNS)?
The TGI was 2990 nM.

What about the GI50 (SF-295 CNS) of the same compound?
The GI50 was 1810 nM.

And the TGI (SF-295 CNS)?
The TGI was 3230 nM.

What about the GI50 (SF-539 CNS) of the same compound?
The GI50 was 1740 nM.

What about the TGI (SF-539 CNS) of the same compound?
The TGI was 3160 nM.

And the GI50 (SK-MEL-2 melanoma)?
Its GI50 is 1940 nM.

And the TGI (SK-MEL-2 melanoma)?
Its TGI is 3650 nM.

What about the GI50 (SK-MEL-28 melanoma) of the same compound?
Its GI50 is 1830 nM.

And the TGI (SK-MEL-28 melanoma)?
The TGI was 3250 nM.

What about the GI50 (SK-MEL-5 melanoma) of the same compound?
Its GI50 is 1690 nM.

What about the TGI (SK-MEL-5 melanoma) of the same compound?
The TGI was 3070 nM.

What about the GI50 (SN12C renal) of the same compound?
Its GI50 is 1610 nM.

What about the TGI (SN12C renal) of the same compound?
The TGI was 3050 nM.

And the GI50 (SNB-19 CNS)?
Its GI50 is 1650 nM.

What about the TGI (SNB-19 CNS) of the same compound?
Its TGI is 3110 nM.

What about the GI50 (SNB-75 CNS) of the same compound?
Its GI50 is 1410 nM.

And the TGI (SNB-75 CNS)?
Its TGI is 2760 nM.

And the GI50 (SW-620 colon)?
Its GI50 is 1480 nM.

What about the TGI (SW-620 colon) of the same compound?
The TGI was 2850 nM.

And the GI50 (TK-10 renal)?
Its GI50 is 1800 nM.

And the TGI (TK-10 renal)?
Its TGI is 3410 nM.

And the GI50 (UACC-257 melanoma)?
Its GI50 is 1920 nM.

And the TGI (UACC-257 melanoma)?
The TGI was 3740 nM.

And the GI50 (UACC-62 melanoma)?
The GI50 was 1760 nM.

What about the TGI (UACC-62 melanoma) of the same compound?
The TGI was 3170 nM.

And the GI50 (UO-31 renal)?
Its GI50 is 1310 nM.

And the TGI (UO-31 renal)?
Its TGI is 2580 nM.
